The values below come from US20240158392A1 (Janssen Biotech, Inc., priority 2021, published 2024).

As usually defined, the IC50 is the midpoint of a concentration-inhibition curve. A high value points to weaker potency in that assay.

This experiment deals with SIK2 (Homo sapiens, UniProt Q9H0K1). Put plainly: SIK2 Enzymatic Assay High Version 2 (High ATP). In kind it is biochemical. The method in brief: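 At room temperature, enzyme (6 nM, 2× final) was preincubated with compound for 30 min, then 6 mM ATP and 400 μM HDAC5tide (both 2× final) were added for 2 h. ADP formed was measured by ADP-Glo Max (2 h reagent, 1 h detection) using luminescence.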
Chain of SIK2 (Q9H0K1 whole entry, species assumed): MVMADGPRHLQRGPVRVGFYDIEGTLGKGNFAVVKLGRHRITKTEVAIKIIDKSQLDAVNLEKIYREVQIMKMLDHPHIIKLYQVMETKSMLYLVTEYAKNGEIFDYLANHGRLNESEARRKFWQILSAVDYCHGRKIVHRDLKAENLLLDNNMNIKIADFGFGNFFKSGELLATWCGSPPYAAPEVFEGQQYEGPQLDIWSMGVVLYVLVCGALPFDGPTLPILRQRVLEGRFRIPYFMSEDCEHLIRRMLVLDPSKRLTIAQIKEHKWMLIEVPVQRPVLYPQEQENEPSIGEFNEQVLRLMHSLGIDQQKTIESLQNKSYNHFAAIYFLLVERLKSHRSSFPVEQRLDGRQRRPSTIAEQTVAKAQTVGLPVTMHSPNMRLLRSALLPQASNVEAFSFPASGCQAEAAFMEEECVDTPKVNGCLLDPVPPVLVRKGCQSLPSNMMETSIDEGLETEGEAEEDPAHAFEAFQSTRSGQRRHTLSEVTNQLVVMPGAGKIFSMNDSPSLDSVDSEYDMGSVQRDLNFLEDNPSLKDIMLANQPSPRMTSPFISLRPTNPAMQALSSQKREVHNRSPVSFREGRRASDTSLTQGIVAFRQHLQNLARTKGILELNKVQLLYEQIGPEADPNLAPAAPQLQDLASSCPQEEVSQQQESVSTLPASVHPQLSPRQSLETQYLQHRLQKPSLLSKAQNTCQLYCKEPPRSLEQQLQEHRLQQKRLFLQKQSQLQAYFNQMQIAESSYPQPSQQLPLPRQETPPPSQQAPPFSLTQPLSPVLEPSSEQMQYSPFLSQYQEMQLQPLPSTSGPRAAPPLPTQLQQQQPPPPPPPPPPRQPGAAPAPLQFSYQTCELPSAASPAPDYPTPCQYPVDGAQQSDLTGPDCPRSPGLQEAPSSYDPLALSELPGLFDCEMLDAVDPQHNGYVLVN

On to `Cc1cc(-c2ccn3nc(Nc4ccc(C(=O)O)cn4)cc3c2)c(O[C@H]2C[C@H]3COC[C@@H](C2)N3)cn1` [Example 370, 6-[[5-[2-methyl-5-[[(1S,5R,7s)-3-oxa-9-azabicyclo[3.3.1]nonan-7-yl]oxy]-4-pyridyl]pyrazolo[1,5-a]pyridin-2-yl]amino]pyridine-3-carboxylic Acid], for which the half-inhibitory concentration (IC50) was under 0.847 nM.

`Cc1cc(-c2ccn3nc(Nc4ccc(C(=O)NCC(C)(C)O)cn4)cc3c2)c(O[C@H]2C[C@H]3COC[C@@H](C2)N3)cn1` [Example 371, N-(2-hydroxy-2-methyl-propyl)-6-[[5-[2-methyl-5-[[(1S,5R,7s)-3-oxa-9-azabicyclo[3.3.1]nonan-7-yl]oxy]-4-pyridyl]pyrazolo[1,5-a]pyridin-2-yl]amino]pyridine-3-carboxamide] registered a 50% inhibitory concentration (IC50) of under 0.847 nM.

As to `Cc1cc(-c2ccn3nc(Nc4ccnc(C)n4)cc3c2)c(O[C@H]2C[C@H]3COC[C@@H](C2)N3)cn1` [Example 372, 5-[2-methyl-5-[[(1S,5R,7s)-3-oxa-9-azabicyclo[3.3.1]nonan-7-yl]oxy]-4-pyridyl]-N-(2-methylpyrimidin-4-yl)pyrazolo[1,5-a]pyridin-2-amine], the IC50 is under 0.847 nM.

`Cc1cc(-c2ccn3nc(Nc4ccc(C(=O)NCC5CCOCC5)cn4)cc3c2)c(O[C@H]2C[C@H]3COC[C@@H](C2)N3)cn1` [Example 373, 6-[[5-[2-methyl-5-[[(1R,5S,7s)-3-oxa-9-azabicyclo[3.3.1]nonan-7-yl]oxy]-4-pyridyl]pyrazolo[1,5-a]pyridin-2-yl]amino]-N-(tetrahydropyran-4-ylmethyl)pyridine-3-carboxamide]: the IC50 was under 0.847 nM.

`Cc1cc(-c2ccn3nc(Nc4ccc(C(F)(F)F)cn4)cc3c2)c(O[C@H]2C[C@H]3COC[C@@H](C2)N3)cn1` [Example 374, 5-[2-methyl-5-[[(1S,5R,7s)-3-oxa-9-azabicyclo[3.3.1]nonan-7-yl]oxy]-4-pyridyl]-N-[5-(trifluoromethyl)-2-pyridyl]pyrazolo[1,5-a]pyridin-2-amine] gave an IC50 of under 0.847 nM.

In turn, `Cc1cc(-c2ccn3nc(Nc4cnc(C(F)(F)F)cn4)cc3c2)c(O[C@H]2C[C@H]3COC[C@@H](C2)N3)cn1` [Example 375, 5-(5-(((1R,5S,7s)-3-oxa-9-azabicyclo[3.3.1]nonan-7-yl)oxy)-2-methylpyridin-4-yl)-N-(5-(trifluoromethyl)pyrazin-2-yl)pyrazolo[1,5-a]pyridin-2-amine] gave an IC50 of 1.15 nM.

`Cc1cc(-c2ccn3nc(Nc4ccc(C(N)=O)cn4)cc3c2)c(O[C@H]2C[C@H]3COC[C@@H](C2)N3)cn1` [Example 376, 6-[[5-[2-methyl-5-[[(1R,5S,7s)-3-oxa-9-azabicyclo[3.3.1]nonan-7-yl]oxy]-4-pyridyl]pyrazolo[1,5-a]pyridin-2-yl]amino]pyridine-3-carboxamide] came in with an IC50 of 1.36 nM.

Molecule `CCCNC(=O)c1ccc(Nc2cc3cc(-c4cc(C)ncc4O[C@H]4C[C@H]5COC[C@@H](C4)N5)ccn3n2)nc1` [Example 377, 6-[[5-[2-methyl-5-[[(1R,5S,7s)-3-oxa-9-azabicyclo[3.3.1]nonan-7-yl]oxy]-4-pyridyl]pyrazolo[1,5-a]pyridin-2-yl]amino]-N-propyl-pyridine-3-carboxamide] returned an IC50 of under 0.847 nM.

`Cc1cc(-c2ccn3nc(Nc4cc(C(F)(F)F)ccn4)cc3c2)c(O[C@H]2C[C@H]3COC[C@@H](C2)N3)cn1` [Example 378, 5-[2-methyl-5-[[(1S,5R,7s)-3-oxa-9-azabicyclo[3.3.1]nonan-7-yl]oxy]-4-pyridyl]-N-[4-(trifluoromethyl)-2-pyridyl]pyrazolo[1,5-a]pyridin-2-amine] had a concentration for half-maximal inhibition (IC50) of under 0.847 nM.

For the molecule `Cc1cc(-c2ccn3nc(Nc4cc(C(F)(F)F)n(C)n4)cc3c2)c(O[C@H]2C[C@H]3COC[C@@H](C2)N3)cn1` [Example 379, 5-[2-methyl-5-[[(1S,5R,7s)-3-oxa-9-azabicyclo[3.3.1]nonan-7-yl]oxy]-4-pyridyl]-N-[1-methyl-5-(trifluoromethyl)pyrazol-3-yl]pyrazolo[1,5-a]pyridin-2-amine], 1.25 nM corresponded to half-maximal inhibition (IC50).

Molecule `Cc1cc(-c2ccn3nc(Nc4cn(C)nn4)cc3c2)c(O[C@H]2C[C@H]3COC[C@@H](C2)N3)cn1` [Example 380, 5-[2-methyl-5-[[(1R,5S,7s)-3-oxa-9-azabicyclo[3.3.1]nonan-7-yl]oxy]-4-pyridyl]-N-(1-methyltriazol-4-yl)pyrazolo[1,5-a]pyridin-2-amine] had an IC50 of under 0.847 nM.

As for `Cc1cnc(Nc2cc3cc(-c4cc(C)ncc4O[C@H]4C[C@H]5COC[C@@H](C4)N5)ccn3n2)cn1` [Example 381, 5-[2-methyl-5-[[(1S,5R,7s)-3-oxa-9-azabicyclo[3.3.1]nonan-7-yl]oxy]-4-pyridyl]-N-(5-methylpyrazin-2-yl)pyrazolo[1,5-a]pyridin-2-amine], the half-maximal inhibitory concentration (IC50) was under 0.847 nM.

Turning to `Cc1cc(-c2ccn3nc(Nc4cc(C)nc(C)n4)cc3c2)c(O[C@H]2C[C@H]3COC[C@@H](C2)N3)cn1` [Example 382, N-(2,6-dimethylpyrimidin-4-yl)-5-[2-methyl-5-[[(1S,5R,7s)-3-oxa-9-azabicyclo[3.3.1]nonan-7-yl]oxy]-4-pyridyl]pyrazolo[1,5-a]pyridin-2-amine], the IC50 is under 0.847 nM.

On to `Cc1cc(-c2ccn3nc(Nc4ccc(C(=O)N(C)C)cn4)cc3c2)c(O[C@H]2C[C@H]3COC[C@@H](C2)N3)cn1` [Example 383, N,N-dimethyl-6-[[5-[2-methyl-5-[[(1S,5R,7s)-3-oxa-9-azabicyclo[3.3.1]nonan-7-yl]oxy]-4-pyridyl]pyrazolo[1,5-a]pyridin-2-yl]amino]pyridine-3-carboxamide], for which it took 0.947 nM to reach half-maximal inhibition (IC50).

As to `CCNC(=O)c1ccc(Nc2cc3cc(-c4cc(C)ncc4O[C@H]4C[C@H]5COC[C@@H](C4)N5)ccn3n2)nc1` [Example 384, N-ethyl-6-[[5-[2-methyl-5-[[(1S,5R,7s)-3-oxa-9-azabicyclo[3.3.1]nonan-7-yl]oxy]-4-pyridyl]pyrazolo[1,5-a]pyridin-2-yl]amino]pyridine-3-carboxamide], it took 0.889 nM to reach half-maximal inhibition (IC50).

`CCNC(=O)c1ccc(Nc2cc3cc(-c4cc(C)ncc4O[C@H]4C[C@H]5COC[C@@H](C4)N5)ccn3n2)nn1` [Example 385, N-ethyl-6-[[5-[2-methyl-5-[[(1S,5R,7s)-3-oxa-9-azabicyclo[3.3.1]nonan-7-yl]oxy]-4-pyridyl]pyrazolo[1,5-a]pyridin-2-yl]amino]pyridazine-3-carboxamide] showed a 50% inhibitory concentration (IC50) of 1.2 nM.

With `CCNC(=O)c1cnc(Nc2cc3cc(-c4cc(C)ncc4O[C@H]4C[C@H]5COC[C@@H](C4)N5)ccn3n2)cn1` [Example 386, N-ethyl-5-[[5-[2-methyl-5-[[(1S,5R,7s)-3-oxa-9-azabicyclo[3.3.1]nonan-7-yl]oxy]-4-pyridyl]pyrazolo[1,5-a]pyridin-2-yl]amino]pyrazine-2-carboxamide], the IC50 stood at 1.31 nM.

In the case of `COCCNC(=O)c1ccc(Nc2cc3cc(-c4cc(C)ncc4O[C@H]4C[C@H]5COC[C@@H](C4)N5)ccn3n2)nc1` [Example 387, N-(2-methoxyethyl)-6-[[5-[2-methyl-5-[[(1S,5R,7s)-3-oxa-9-azabicyclo[3.3.1]nonan-7-yl]oxy]-4-pyridyl]pyrazolo[1,5-a]pyridin-2-yl]amino]pyridine-3-carboxamide], the IC50 amounted to 1 nM.

As for `Cc1cc(-c2ccn3nc(Nc4ccc(C(=O)NC5CCOCC5)cn4)cc3c2)c(O[C@H]2C[C@H]3COC[C@@H](C2)N3)cn1` [Example 388, 6-[[5-[2-methyl-5-[[(1S,5R,7s)-3-oxa-9-azabicyclo[3.3.1]nonan-7-yl]oxy]-4-pyridyl]pyrazolo[1,5-a]pyridin-2-yl]amino]-N-tetrahydropyran-4-yl-pyridine-3-carboxamide], the concentration for half-maximal inhibition (IC50) worked out at 1.03 nM.

`Cc1cc(-c2ccn3nc(Nc4ccc(C(=O)NCC(C)(C)C#N)cn4)cc3c2)c(O[C@H]2C[C@H]3COC[C@@H](C2)N3)cn1` [Example 389, N-(2-cyano-2-methyl-propyl)-6-[[5-[2-methyl-5-[[(1S,5R,7s)-3-oxa-9-azabicyclo[3.3.1]nonan-7-yl]oxy]-4-pyridyl]pyrazolo[1,5-a]pyridin-2-yl]amino]pyridine-3-carboxamide]: inhibition was half-maximal at 1.02 nM (IC50).

The molecule `Cc1cc(-c2ccn3nc(Nc4cnc(C(=O)NCC(C)(C)O)cn4)cc3c2)c(O[C@H]2C[C@H]3COC[C@@H](C2)N3)cn1` [Example 390, N-(2-hydroxy-2-methyl-propyl)-5-[[5-[2-methyl-5-[[(1S,5R,7s)-3-oxa-9-azabicyclo[3.3.1]nonan-7-yl]oxy]-4-pyridyl]pyrazolo[1,5-a]pyridin-2-yl]amino]pyrazine-2-carboxamide] came in with a concentration for half-maximal inhibition (IC50) of over 50000 nM.

Turning to `Cc1cnc(Nc2cc3cc(-c4cc(C)ncc4O[C@H]4C[C@H]5COC[C@@H](C4)N5)ccn3n2)nc1` [Example 391, 5-(5-(((1R,5S,7s)-3-oxa-9-azabicyclo[3.3.1]nonan-7-yl)oxy)-2-methylpyridin-4-yl)-N-(5-methylpyrimidin-2-yl)pyrazolo[1,5-a]pyridin-2-amine], the 50% inhibitory concentration (IC50) is under 0.847 nM.

In the case of `Cc1cc(-c2ccn3nc(Nc4cnccn4)cc3c2)c(O[C@H]2C[C@H]3COC[C@@H](C2)N3)cn1` [Example 392, 5-[2-methyl-5-[[(1S,5R,7s)-3-oxa-9-azabicyclo[3.3.1]nonan-7-yl]oxy]-4-pyridyl]-N-pyrazin-2-yl-pyrazolo[1,5-a]pyridin-2-amine], the IC50 came to 1.07 nM.

As for `Cc1cc(-c2ccn3nc(Nc4ccc(S(C)(=O)=O)cn4)cc3c2)c(O[C@H]2C[C@H]3COC[C@@H](C2)N3)cn1` [Example 393, 5-[2-methyl-5-[[(1R,5S,7s)-3-oxa-9-azabicyclo[3.3.1]nonan-7-yl]oxy]-4-pyridyl]-N-(5-methylsulfonyl-2-pyridyl)pyrazolo[1,5-a]pyridin-2-amine], the 50% inhibitory concentration (IC50) is 1.31 nM.

`Cc1cc(-c2ccn3nc(Nc4cccnn4)cc3c2)c(O[C@H]2C[C@H]3COC[C@@H](C2)N3)cn1` [Example 394, 5-[2-methyl-5-[[(1R,5S,7s)-3-oxa-9-azabicyclo[3.3.1]nonan-7-yl]oxy]-4-pyridyl]-N-pyridazin-3-yl-pyrazolo[1,5-a]pyridin-2-amine] yielded a half-maximal inhibitory concentration (IC50) of under 0.847 nM.
